The target in one series is T1, dopamine D2 receptor (Homo sapiens, UniProt P14416).
T1 construct: expressed in transfected cells; host or cells: CHO cells (CHO-hD2L), membrane preparation
T1 sequence (P14416 whole entry): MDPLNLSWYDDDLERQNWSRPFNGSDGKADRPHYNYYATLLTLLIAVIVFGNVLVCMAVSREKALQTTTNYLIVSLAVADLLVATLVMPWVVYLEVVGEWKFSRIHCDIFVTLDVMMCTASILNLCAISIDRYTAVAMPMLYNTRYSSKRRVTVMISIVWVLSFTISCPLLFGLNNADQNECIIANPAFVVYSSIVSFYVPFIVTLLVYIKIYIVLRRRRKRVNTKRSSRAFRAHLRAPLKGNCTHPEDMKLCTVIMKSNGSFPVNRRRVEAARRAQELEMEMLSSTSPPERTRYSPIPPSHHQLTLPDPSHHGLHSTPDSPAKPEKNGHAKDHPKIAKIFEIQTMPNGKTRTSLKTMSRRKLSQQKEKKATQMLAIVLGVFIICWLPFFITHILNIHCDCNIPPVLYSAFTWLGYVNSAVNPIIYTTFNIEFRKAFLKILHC
In words: Dopamine D2 receptor binding ([3H]spiperone radioligand binding). The following applies: [3H]spiperone binding, membrane preparation from CHO-hD2L cells. An excerpt: (§1) The ability of the compounds of this invention to bind to the dopamine D2 and serotonin 2A (5HT2A) receptors can be determined using conventional radioligand receptor binding assays. All receptors can be heterologously expressed in cell lines and experiments conducted in membrane preparations from the cell lines using procedures outlined below. IC50 concentrations can be determined by nonlinear regression of concentration-dependent reduction in specific binding. The Cheng-Prussoff equation can be used to convert the IC50 to Ki concentrations.
Dopamine D2 Receptor Binding:
[^3H]Spiperone binding to a membrane preparation from CHO-hD2L cells is carried out in 250 μl of 50 mM Tris-HCl buffer containing 100 mM NaCl, 1 mM MgCl2 and 1% DMSO at pH 7.4. Duplicate samples containing (in order of addition) the test compounds, 0.4 nM [^3H]spiperone and approximately 12 μg protein are incubated for 120 minutes at room temperature. Bound radioligand is separated by rapid filtration under reduced pressure through Whatman GF/B glass fiber filters previously treated with 0.3% polyethyleneimine. Radioactivity retained on the filter is determined by liquid scintillation spectrophotometry.
The title compounds of Examples 1–524 were tested using the above assay, in which specific binding determined in the presence of 1 mM haloperidol was 95%.
For `Cc1cc(C(=O)Nc2ccc(CCN3CCN(c4nsc5ccccc45)CC3)cc2)n(C)n1` [Example 102, 2,5-DIMETHYL-2H-PYRAZOLE-3-CARBOXYLIC ACID {4-[2-(4-1,2-BENZISOTHIAZOL-3-YL-PIPERAZIN-1-YL)-ETHYL]-PHENYL}-AMIDE], the affinity, expressed as Ki, was 8.2 nM. Take `Cc1cc(C(=O)Nc2ccc(CCN3CCN(c4nsc5ccccc45)CC3)cc2)c(C)o1` [Example 27, 2,5-DIMETHYL-FURAN-3-CARBOXYLIC ACID {4-[2-(4-1,2-BENZISOTHIAZOL-3-YL-PIPERAZIN-1-YL)-ETHYL]-PHENYL}-AMIDE]: the Ki came out at 6.32 nM. This Ki and that of the compound before are within 1.5-fold of each other. The compound `COc1cccc(S(=O)(=O)Nc2ccc(CCN3CCN(c4nsc5ccccc45)CC3)cc2)c1` [Example 364, N-{4-[2-(4-1,2-BENZISOTHIAZOL-3-YL-PIPERAZIN-1-YL)-ETHYL]-PHENYL}-3-METHOXY-BENZENESULFONAMIDE] gave a Ki of 8.58 nM. The Ki values of the last two compounds are within 1.5-fold of each other.

Test system in the next series: not given
Test: not given
Details: not given
With `COc1cc(CCN2CCN(c3nsc4ccccc34)CC2)c(NS(=O)(=O)c2ccccc2F)cc1OC` [Example 56, N-{2-[2-(4-1,2-BENZISOTHIAZOL-3-YL-PIPERAZIN-1-YL)-ETHYL]-4,5-DIMETHOXY-PHENYL}-2-FLUORO-BENZENESULFONAMIDE], the melting point amounted to 167 °C. Same read-out and setting: in the case of `COc1ccc(OC)c(S(=O)(=O)Nc2ccc(OCCN3CCN(c4nsc5ccccc45)CC3)cc2)c1` [Example 46, N-{4-[2-(4-1,2-BENZISOTHIAZOL-3-YL-PIPERAZIN-1-YL)-ETHOXY]-PHENYL}-2,5-DIMETHOXY-BENZENESULFONAMIDE] it was 78 °C. For `O=C1c2ccccc2CN1c1cccc(CCN2CCN(c3nsc4ccccc34)CC2)c1` [Example 528, 2-{3-[2-(4-BENZO[D]ISOTHIAZOL-3-YL-PIPERAZIN-1-YL)-ETHYL]-PHENYL}-2,3-DIHYDRO-ISOINDOL-1-ONE], the melting point is 154.5 to 155.3 °C. Still for that read-out and setting: in the case of `O=C1c2ccccc2CN1c1ccc(OCCN2CCN(c3nsc4ccccc34)CC2)cc1` [Example 530, 2-{4-[2-(4-BENZO[D]ISOTHIAZOL-3-YL-PIPERAZIN-1-YL)-ETHOXY]-PHENYL}-2,3-DIHYDRO-ISOINDOL-1-ONE] it was 166.4 to 166.6 °C; in that of `COc1cc(CCN2CCN(c3nsc4ccccc34)CC2)c(NC(C)=O)cc1OC`, 120 °C; in that of `COc1cc(CCN2CCN(c3nsc4ccccc34)CC2)c(NC(=O)Cc2ccccc2)cc1OC`, 142 °C. Regarding `CC(=O)OC(C)C(=O)Nc1ccc(OCCN2CCN(c3nsc4ccccc34)CC2)cc1` (centres unmarked), the melting point is 90 °C. The same measure, in the same setting: as for `COc1cc(CCN2CCN(c3nsc4ccccc34)CC2)c(NC(=O)NC2CCCCC2)cc1OC` [Example 63, 1-{2-[2-(4-1,2-BENZISOTHIAZOL-3-YL-PIPERAZIN-1-YL)-ETHYL]-4,5-DIMETHOXY-PHENYL}-3-CYCLOHEXYL-UREA], the figure is 156 °C; as for `Cn1cnc(S(=O)(=O)Nc2ccc(OCCN3CCN(c4nsc5ccccc45)CC3)cc2)c1` [Example 44, 1-METHYL-1H-IMIDAZOLE-4-SULFONIC ACID {4-[2-(4-1,2-BENZISOTHIAZOL-3-YL-PIPERAZIN-1-YL)-ETHOXY]-PHENYL}-AMIDE], 176 °C; as for `COc1cc(CCN2CCN(c3nsc4ccccc34)CC2)c(NC(=O)Nc2c(C)cccc2C)cc1OC`, 96 °C. On to `O=C1c2ccccc2CN1c1ccccc1CCN1CCN(c2nsc3ccccc23)CC1` [Example 529, 2-{2-[2-(4-BENZO[D]ISOTHIAZOL-3-YL-PIPERAZIN-1-YL)-ETHYL]-PHENYL}-2,3-DIHYDRO-ISOINDOL-1-ONE], for which the melting point fell in the range of 207.6 to 208 °C. Same read-out and setting: as for `O=C(Cc1cccs1)Nc1ccc(OCCN2CCN(c3nsc4ccccc34)CC2)cc1`, the figure is 142 °C.

For `Cc1nc(S(=O)(=O)Nc2ccc(OCCN3CCN(c4nsc5ccccc45)CC3)cc2)cn1C`, the melting point came out at 227 °C. The same measure, in the same setting: in the case of `COc1cc(CCN2CCN(c3nsc4ccccc34)CC2)c(NC(=O)Cc2cccs2)cc1OC` it was 135 °C. Still for that read-out and setting: as for `COc1cc(CCN2CCN(c3nsc4ccccc34)CC2)c(NS(=O)(=O)c2cn(C)c(C)n2)cc1OC`, the figure is 233 °C. On the same count and under the same terms, in the case of `CC(C)=CC(=O)Nc1ccccc1CCN1CCN(c2nsc3ccccc23)CC1` [Example 50, 3-METHYL-BUT-2-ENOIC ACID {2-[2-(4-1,2-BENZISOTHIAZOL-3-YL-PIPERAZIN-1-YL)-ETHYL]-PHENYL}-AMIDE] it was 52 °C; in that of `Cc1nn(C)c(Cl)c1S(=O)(=O)Nc1ccc(OCCN2CCN(c3nsc4ccccc34)CC2)cc1`, 85 °C; in that of `COc1cc(CCN2CCN(c3nsc4ccccc34)CC2)c(NC(=O)C=C(C)C)cc1OC` [Example 65, 3-M ETHYL-BUT-2-ENOIC ACID {2-[2-(4-1,2-BENZISOTHIAZOL-3-YL-PIPERAZIN-1-YL)-ETHYL]-4,5-DIMETHOXY-PHENYL}-AMIDE], 58 °C. With `COc1cc(CCN2CCN(c3nsc4ccccc34)CC2)c(NC(=O)Nc2ccc(F)cc2)cc1OC` [Example 62, 1-{2-[2-(4-1,2-BENZISOTHIAZOL-3-YL-PIPERAZIN-1-YL)-ETHYL]-4,5-DIMETHOXY-PHENYL}-3-(4-FLUORO-PHENYL)-UREA], the melting point came out at 211 °C.

`O=C1c2ccccc2CN1c1ccc(CCN2CCN(c3nsc4ccccc34)CC2)cc1` [Example 527, 2-{4-[2-(4-BENZO[D]ISOTHIAZOL-3-YL-PIPERAZIN-1-YL)-ETHYL]-PHENYL}-2,3-DIHYDRO-ISOINDOL-1-ONE] displayed a melting point of 175.9 °C. Still for that read-out and setting: in the case of `CC(C)=CC(=O)Nc1ccc(F)cc1CCN1CCN(c2nsc3ccccc23)CC1` [Example 64, 3-METHYL-BUT-2-ENOIC ACID {2-[2-(4-1,2-BENZISOTHIAZOL-3-YL-PIPERAZIN-1-YL)-ETHYL]-4-FLUORO-PHENYL}-AMIDE] it was 175 °C. The same measure, in the same setting: in the case of `COc1cc(CCN2CCN(c3nsc4ccccc34)CC2)c(NS(=O)(=O)c2ccccc2C)cc1OC` [Example 58, N-{2-[2-(4-1,2-BENZISOTHIAZOL-3-YL-PIPERAZIN-1-YL)-ETHYL]-4,5-DIMETHOXY-PHENYL}-2-METHYL-BENZENESULFONAMIDE] it was 187 °C; in that of `CC(=O)Nc1ccc(S(=O)(=O)Nc2ccc(OCCN3CCN(c4nsc5ccccc45)CC3)cc2)cc1`, 120 °C. In the case of `COc1cc(CCN2CCN(c3nsc4ccccc34)CC2)c(NS(=O)(=O)c2c(C)nn(C)c2C)cc1OC`, the melting point was found to be 196 °C. The same measure, in the same setting: in the case of `O=S(=O)(Nc1ccc(OCCN2CCN(c3nsc4ccccc34)CC2)cc1)c1ccccc1` [Example 47, N-{4-[2-(4-1,2-BENZISOTHIAZOL-3-YL-PIPERAZIN-1-YL)-ETHOXY]-PHENYL}-BENZENESULFONAMIDE] it was 65 °C.

On to `COc1cc(CCN2CCN(c3nsc4ccccc34)CC2)c(NC(=O)Cc2ccc(Cl)cc2)cc1OC`, for which the melting point amounted to 152 °C.

The target in another series is T2, serotonin 2A (5HT2A) receptor (Homo sapiens, UniProt P28223).
T2 construct: expressed in transfected cells; host or cells: Swiss cells (Swiss-h5HT2A)
T2 sequence (P28223 whole entry): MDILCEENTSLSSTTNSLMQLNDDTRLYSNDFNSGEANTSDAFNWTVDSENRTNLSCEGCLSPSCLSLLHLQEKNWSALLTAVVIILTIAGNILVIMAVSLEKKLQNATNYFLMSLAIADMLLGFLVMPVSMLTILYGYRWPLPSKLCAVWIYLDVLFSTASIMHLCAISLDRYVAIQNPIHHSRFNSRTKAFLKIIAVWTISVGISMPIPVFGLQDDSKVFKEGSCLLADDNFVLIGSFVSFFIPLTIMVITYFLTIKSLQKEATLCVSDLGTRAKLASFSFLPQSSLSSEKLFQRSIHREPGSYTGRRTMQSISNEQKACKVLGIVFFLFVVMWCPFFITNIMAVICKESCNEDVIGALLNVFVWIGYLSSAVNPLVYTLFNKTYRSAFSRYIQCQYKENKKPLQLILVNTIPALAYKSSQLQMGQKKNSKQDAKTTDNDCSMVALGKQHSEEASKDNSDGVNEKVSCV
As to the kind of experiment: Serotonin 2A binding ([3H]ketanserin radioligand binding). The note with it: [3H]ketanserin binding, Swiss-h5HT2A cell membranes.
From the text: as §1
[^3H] Ketanserin binding to Swiss-h5HT2A cell membranes can be carried out in 250 μl of 50 mM Tris-HCl buffer pH 7.4. Duplicate samples containing (in order of addition) test compounds, 1.0 nM [^3H]ketanserin, and approximately 75 μg protein are incubated for 120 minutes at room temperature. Bound radioligand is separated by rapid filtration under reduced pressure through Whatman GF/B glass fiber filters previously treated with 0.3% polyethyleneimine. Radioactivity retained on the filter is determined by liquid scintillation spectrophotometry.
The title compounds of Examples 1–524 were tested using the above assay, in which specific binding determined in the presence of 1 mM ketanserin was 90%.
The compound `Cc1cc(C(=O)Nc2ccc(CCN3CCN(c4nsc5ccccc45)CC3)cc2)n(C)n1` [Example 102, 2,5-DIMETHYL-2H-PYRAZOLE-3-CARBOXYLIC ACID {4-[2-(4-1,2-BENZISOTHIAZOL-3-YL-PIPERAZIN-1-YL)-ETHYL]-PHENYL}-AMIDE] had a Ki of 0.25 nM.

Turning to `Cc1cc(C(=O)Nc2ccc(CCN3CCN(c4nsc5ccccc45)CC3)cc2)c(C)o1` [Example 27, 2,5-DIMETHYL-FURAN-3-CARBOXYLIC ACID {4-[2-(4-1,2-BENZISOTHIAZOL-3-YL-PIPERAZIN-1-YL)-ETHYL]-PHENYL}-AMIDE], the Ki came out at 1.46 nM. Compound `COc1cccc(S(=O)(=O)Nc2ccc(CCN3CCN(c4nsc5ccccc45)CC3)cc2)c1` [Example 364, N-{4-[2-(4-1,2-BENZISOTHIAZOL-3-YL-PIPERAZIN-1-YL)-ETHYL]-PHENYL}-3-METHOXY-BENZENESULFONAMIDE] came in with an inhibition constant Ki of 0.29 nM.

As usually defined, the Ki is a dissociation constant, usually derived from enzyme kinetics or from competition with a known ligand. Low values mean higher affinity, high ones lower affinity. The melting point is the temperature, or range, at which the solid turns liquid.

(Values after patent US7101886B2, “Phenylalkyl and pyridylalkyl piperazine derivatives” (Warner Lambert Company, priority 2002, dated 2006).)
